From patent US20030176390A1, “Methods of treating insulin resistance syndrome and diabetes” (priority 2001, published 2003)

Tests used:
[1] = test system: rat adipocytes; assay: In vitro lipolysis assay (antilipolytic activity in rat adipocytes); format: cell-based; details: Rattus norvegicus, Adipocyte, 1 h; norepinephrine-stimulated lipolysis, glycerol assayed, 60 min; read-out: Lipo ec50
Protocol: Determination of Antilipolytic Activity in Rat Adipocytes
Isolation of Adipocytes from Epididymal Fat Pads
Adipose tissue is removed from anesthetized rats and rinsed twice in incubation medium (2.09 g sodium bicarbonate and 0.04 g EDTA, disodium salt, in 1 L Krebs buffer). Each rat (300-350 g) yields approximately 4 mL of adipose tissue. The adipose tissue (35 mL) is cut into small pieces with scissors and washed with incubation medium (50 mL). The mixture is poured into the barrel of a 50 mL syringe to which is attached a short piece of clamped tubing instead of a needle. The aqueous phase is allowed to drain. A second wash with incubation medium is passed through the syringe. The tissue is added to 50 mL of collagenase solution (collagenase (90 mg), bovine serum albumin (BSA) (500 mg), and 0.1 M calcium chloride solution (1 mL), in incubation medium (50 mL)) in a 1 L bottle. The mixture is shaken in an environmental at 37° C. for about 60 minutes under an atmosphere of 95% oxygen/5% carbon dioxide to effect digestion of the tissue. The dispersed cells are poured through 2 layers of cheese cloth into a 100 mL plastic beaker. The undigested clumps in the cloth are rinsed once with incubation medium (20 mL). The cells in the beaker are centrifuged in 2 plastic tubes for 30 seconds at room temperature at 300 rpm. The aqueous phase is aspirated from beneath the loosely packed layer of floating fat cells and discarded. The adipocytes are gently poured into a 250 mL plastic beaker containing 100 mL of rinse solution (1 g BSA per 100 mL incubation medium). After gentle stirring the centrifugation step is repeated. Another wash with rinse solution follows. The cells are pooled and their volume is estimated with a graduated cylinder. The adipocytes are diluted in twice their volume of assay buffer (incubation medium (120 mL), BSA (1.2 g), pyruvic acid (13 mg)).
The assay is performed in 20 mL plastic scintillation vials and the total assay volume is 4.2 mL. Assay buffer (2.5 mL), diluted adipocytes (1.5 mL), and a solution of the compound to be tested (12.3 μL) adenosine agonist (12.3 μl; varying concentration) is incubated in the environmental shaker for 15 minutes, then the reaction is started with norepinephrine solution (41.2 μL) (10 nM, in a carrier solution containing water (100 mL), BSA (4 mg), and 0.1 M EDTA (20 μL))and adenosine deaminase (1 μg/mL, 41.2 μl). After sixty minutes in the shaker the reaction is terminated by putting the vials on ice. […] The hard lipid layer is removed by aspiration and the aqueous layer is assayed for glycerol (400 μl of sample). The positive control is done in the absence of any adenosine agonist, substituting water in place of the solution to be tested.

[2] = Plasma free fatty acids in anaesthetized starved male Wistar rats; format: in vivo; set-up: unit not given here
Protocol: Measurement of Plasma Lipdis (Free Fatty Acids, Triglycerides, Cholesterol) in Anaesthetized Rats.
Plasma lipid levels were assayed in anaesthetized rats. Briefly, rats were anaesthetized with an intraperitoneal injection of pentobarbital sodium (60 mg/kg), tracheotomized, and one jugular vein per rat was cannulated for intravenous administration (bolus injection or infusion). Anesthesia was mantained for up to 7 hours by subcutaneous infusion of pentobarbital sodium (adjusted to the anesthetic depth of the individual animal; about 24 mg/kg/h). Body temperature was monitored with a rectal probe thermometer, and temperature was maintained at 37° C. by means of a heated surgical plate. The rats were allowed to stabilize their blood levels after surgery for up to 2 hours, after which the test compound was injected intraperitoneally. Blood samples for glucose analysis (10 μl) were obtained from the tip of the tail every 15 minutes. For analysis of plasma lipids blood samples (0.3 ml) were obtained from the jugular vein either every 10 to 15 minutes for up to 2 hours, or every hour for up to 5 hours after compound administration. Standard enzymatic procedures were used to determine blood glucose (Bergmeyer, 1974).

[3] = Insulin tolerance test (3 U/kg s.c.) in insulin resistant Zucker Fatty rats after 3 weeks pretreatment; format: in vivo; set-up: unit not given here
Protocol: Measurement of Insulin Sensitivity in Conscious Rats.
Insulin resistant Zucker Fatty rats or Zucker Diabetic Fatty (ZDF) rats were treated for up to 3 weeks with the test compound orally once daily. Plasma parameters were obtained by retroorbital bleeding during inhalation anaesthesia on respective study days. […] In the case of improvement of insulin sensitivity by the test compound the blood glucose reduction was much more pronounced and prolonged compared to that of the control group.

[4] = test system: A1 and A2 receptors; details: selectivity; cited from earlier work
[5] = test system: A2 receptor; details: relative to NECA; cited from earlier work

## COC[C@H]1C[C@@H](n2cnc3c(N[C@H]4CCN(c5ccc(C(F)(F)F)cn5)C4)ncnc32)[C@H](O)[C@@H]1O [Example 3, (1R,2S,3R,5R)-5-methoxymethyl-3-[6-[1-(5-trifluoromethylpyridin2-yl)pyrrolidin-3(S)-ylamino]-purin-9-yl]cyclopentane-1,2-diol]
[1]
  EC50: 5.62 nM
[2]; 10 mg/kg i.p., 10 minutes
  plasma free fatty acids, mean: 0.42
[2]; 10 mg/kg i.p., 20 minutes
  plasma free fatty acids, mean: 0.26
[2]; 10 mg/kg i.p., 30 minutes
  plasma free fatty acids, mean: 0.19
[2]; 10 mg/kg i.p., 40 minutes
  plasma free fatty acids, mean: 0.19
[2]; 10 mg/kg i.p., 60 minutes
  plasma free fatty acids, mean: 0.13
[2]; 10 mg/kg i.p., −60 minutes
  plasma free fatty acids, mean: 0.61
[2]; 30 mg/kg i.p., 10 minutes
  plasma free fatty acids, mean: 0.24
[2]; 30 mg/kg i.p., 20 minutes
  plasma free fatty acids, mean: 0.14
[2]; 30 mg/kg i.p., 30 minutes
  plasma free fatty acids, mean: 0.13
[2]; 30 mg/kg i.p., 40 minutes
  plasma free fatty acids, mean: 0.10
[2]; 30 mg/kg i.p., 60 minutes
  plasma free fatty acids, mean: 0.09
[2]; 30 mg/kg i.p., −60 minutes
  plasma free fatty acids, mean: 0.52
[3]; 1 mg/kg p.o. for 3 weeks (first group), 0 minutes after insulin
  Insulin tolerance test, blood glucose, mean: 4.60
[3]; 1 mg/kg p.o. for 3 weeks (first group), 60 minutes after insulin
  Insulin tolerance test, blood glucose, mean: 1.96
[3]; 1 mg/kg p.o. for 3 weeks (first group), 120 minutes after insulin
  Insulin tolerance test, blood glucose, mean: 1.59
[3]; 1 mg/kg p.o. for 3 weeks (first group), 180 minutes after insulin
  Insulin tolerance test, blood glucose, mean: 1.72
[3]; 1 mg/kg p.o. for 3 weeks (first group), 240 minutes after insulin
  Insulin tolerance test, blood glucose, mean: 3.02
[3]; 1 mg/kg p.o. for 3 weeks (first group), 300 minutes after insulin
  Insulin tolerance test, blood glucose, mean: 5.13
[3]; 1 mg/kg p.o. for 3 weeks (first group), 360 minutes after insulin
  Insulin tolerance test, blood glucose, mean: 4.98
[3]; 1 mg/kg p.o. for 3 weeks (first group), 420 minutes after insulin
  Insulin tolerance test, blood glucose, mean: 4.04
[3]; second group, (1 mg/kg p.o.), 3 weeks, 0 minutes after insulin
  Insulin tolerance test, blood glucose, mean: 5.17
[3]; second group, (1 mg/kg p.o.), 3 weeks, 60 minutes after insulin
  Insulin tolerance test, blood glucose, mean: 1.99
[3]; second group, (1 mg/kg p.o.), 3 weeks, 120 minutes after insulin
  Insulin tolerance test, blood glucose, mean: 1.57
[3]; second group, (1 mg/kg p.o.), 3 weeks, 180 minutes after insulin
  Insulin tolerance test, blood glucose, mean: 1.44
[3]; second group, (1 mg/kg p.o.), 3 weeks, 240 minutes after insulin
  Insulin tolerance test, blood glucose, mean: 2.54
[3]; second group, (1 mg/kg p.o.), 3 weeks, 300 minutes after insulin
  Insulin tolerance test, blood glucose, mean: 4.35
[3]; second group, (1 mg/kg p.o.), 3 weeks, 360 minutes after insulin
  Insulin tolerance test, blood glucose, mean: 5.63
[3]; second group, (1 mg/kg p.o.), 3 weeks, 420 minutes after insulin
  Insulin tolerance test, blood glucose, mean: 6.09
other
  melting point: 166 to 168 °C

## OC[C@H]1O[C@@H](n2cnc3c(NC4CCCC4)ncnc32)[C@H](O)[C@@H]1O [CPA, Cyclopentyladenosine]
[4]
  A2/A1 ratio: 780

## Nc1nc(Nc2ccccc2)nc2c1ncn2[C@@H]1O[C@H](CO)[C@@H](O)[C@H]1O [CV-1808]
[5]
  fold less potent than NECA in its affinity for the A2 receptor: 10 fold
[4]
  A2/A1 ratio: 0.19
